Results reported in paper PMC13376213, “Systematic discovery of motif-based interactions of the auxiliary domains of USP family deubiquitinases” (Nature Communications, 2026).
Like-named read-outs stand apart in the source and are kept apart here.

Columns and labels:
Assay type in all cases: binding
[1] = target: T1, USP33 zf-UBP domain (Homo sapiens, UniProt Q8TEY7); test: FP-monitored affinity measurements, USP33 zf-UBP; conditions: USP33_UBP; FP displacement by unlabelled peptide; read-out: KD
T1 construct: USP33_UBP; Q8TEY7; zf-UBP; 36; 130; 6xHis-GST (N, cleaved yes); made in house; host or cells: Escherichia coli BL21-Gold (DE3)
T1 sequence (Q8TEY7 with tags, fused parts or gaps): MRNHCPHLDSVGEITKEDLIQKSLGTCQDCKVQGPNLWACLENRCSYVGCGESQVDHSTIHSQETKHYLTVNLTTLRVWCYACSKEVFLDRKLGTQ
Experimental: (§3) The measurements were performed at room temperature in a non-binding black half area 96-well plate (Corning) with a total volume of 50 μL per well. […] All measurements were performed in three technical replicates. […] The saturation curves were fitted to the quadratic equation, and the displacement curves were fitted to a sigmoidal dose-response equation as described previously[68].

[2] = target: T2, USP20 DUSP2 domain (Homo sapiens, UniProt Q9Y2K6); test: FP-monitored affinity measurements, USP20 DUSP2; conditions: USP20_DUSP2; FP displacement by unlabelled peptide; read-out: KD
T2 construct: USP20_DUSP2; Q9Y2K6; DUSP2; 776; 894; 6xHis-GST (N, cleaved yes); made in house; host or cells: Escherichia coli BL21-Gold (DE3)
Experimental: (§1) Proteins were expressed in Escherichia coli (E.coli) BL21-Gold (DE3) bacteria. The cDNAs encoding N-terminal 6-histidine-glutathione S-transferase tagged (6xHis-GST), 6xHis-tagged or GST-tagged protein domains in pETM33, pETM11, pGEX6P1 expression vectors respectively, were obtained from Genescript or kindly provided by MRC-PPU (Suppl. Data 1) The bacteria were transformed with the plasmid and grew at 37 °C in 2YT (5 g/L NaCl, 16 g/L tryptone and 10 g/L yeast extract) supplemented with Kanamycin (30 μg/mL) until reaching an OD600 of 0.7. Protein expression was induced with 0.3 mM isopropyl β-D-1 thiogalactopyranoside (IPTG) for 18 h at 18 °C while shaking. For zinc-finger domains, 50 μM of ZnSO4 was added during expression. The bacterial cultures were pelleted for 15 minutes at 4000 x g at 4 °C and stored at −20 °C until purification. The pellets were resuspended in lysis buffer (1× phosphate-buffered saline (PBS), 0.5 % Triton-X, 5 mM MgCl2, 10 μg/mL lysozyme, cOmplete^TM EDTA-free protease inhibitor cocktail (Roche), 10 μg/mL DNAseI) and incubated for 1 h shaking at 4 °C. […] The supernatant was incubated with glutathione (GSH) Sepharose (Cytiva) or Ni2+ Sepharose (Cytiva) for 1 h at 4 °C while shaking. The beads with the bound protein were washed with 1x PBS and eluted with 10 mM reduced glutathione in 50 mM Tris pH 8.0. For fluorescence polarization experiments, the proteins were not eluted from the beads, and the 6xHis-GST tag was cleaved overnight on GSH Sepharose beads at 4 °C while shaking with PreScission Protease in cleavage buffer (50 mM Tris pH 7.5, 150 mM NaCl, 1 mM DTT). The sample containing the cleaved domain was separated from the tag and protease and buffer-exchanged to 50 mM sodium phosphate buffer pH 7.4 with 1 mM DTT using a PD-10 desalting column (Cytiva). The purity and size of the proteins were analyzed by SDS-PAGE electrophoresis.
(§2) The measurements were performed at room temperature in a non-binding black half area 96-well plate (Corning) with a total volume of 50 μL per well. Peptides were obtained from GeneCust (France) with >95% purity. FITC-labeled peptides (N-terminally FITC-labeled without spacer and C-terminally amidated) were dissolved in dimethyl sulfoxide (DMSO), and unlabeled peptides (N-terminally acetylated and C-terminally amidated) were dissolved in 50 mM phosphate buffer pH 7.4. Saturation measurements were performed using a serial dilution of the protein domains in phosphate buffer (25 μL) and the addition of 10 nM FITC-labeled peptide (in phosphate buffer supplemented with 2 mM DTT) (25 μL). […] All measurements were performed in three technical replicates. The data were analyzed using GraphPad Prism version 9.2.0 for MacOS (GraphPad Software, San Diego, California USA, www.graphpad.com). The saturation curves were fitted to the quadratic equation, and the displacement curves were fitted to a sigmoidal dose-response equation as described previously.

[3] = target: T3, USP33 DUSP2 domain (Homo sapiens, UniProt Q8TEY7); test: FP-monitored affinity measurements, USP33 DUSP2
T3 construct: USP33_DUSP2; Q8TEY7; DUSP2; 806; 921; 6xHis-GST (N, cleaved yes); made in house; host or cells: Escherichia coli BL21-Gold (DE3)
T3 sequence (Q8TEY7 with tags, fused parts or gaps): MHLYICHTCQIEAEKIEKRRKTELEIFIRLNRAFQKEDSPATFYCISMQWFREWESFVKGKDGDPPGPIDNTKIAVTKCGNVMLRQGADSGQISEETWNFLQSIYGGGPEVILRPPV
Experimental: as §1, §2

[4] = target: T4, USP20 zf-UBP domain (Homo sapiens, UniProt Q9Y2K6); test: FP-monitored affinity measurements, USP20 zf-UBP; conditions: USP20_UBP; FP displacement by unlabelled peptide; read-out: KD
T4 construct: USP20_UBP; Q9Y2K6; zf-UBP; 99; 6xHis-GST (N, cleaved yes); made in house; host or cells: Escherichia coli BL21-Gold (DE3)
Experimental: as §3

[5] = target: T3, USP33 DUSP2 domain; test: Peptide SPOT array, USP33 DUSP2; conditions: average normalised to the highest intensity (CCDC88B = 100)
Experimental: (§4) Peptides were synthesized on cellulose membranes with standard Fluoroenylmethylox-ycarbonyl (Fmoc) chemistry using a Multipep automated synthesizer at INTAVIS (Tübingen, Germany) or ordered from JPT (PepSpots). The membranes were activated with methanol for 5 min and washed three times for 5 min with TBST (50 mM Tris, 137 mM NaCl, 2.7 mM KCl, pH 8.0, 0.05% Tween-20). The membranes were incubated with blocking buffer (5% skim milk powder in TBST) for 2 h at room temperature while shaking. The membranes were incubated with the GST-tagged protein diluted at the desired concentration in blocking buffer and incubated overnight at 4 °C while shaking. The membrane was rinsed 3 times with TBST and incubated with HRP-conjugated anti-GST antibody (Cytiva, RPN1236; 1:3000 dilution) in blocking buffer for 1 h at 4 °C while shaking. […] The images were analyzed in Fiji (ImageJ2 version 2.9.0).

[6] = target: T2, USP20 DUSP2 domain; test: Peptide SPOT array, USP20 DUSP2;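 note: GST-tagged domain probed overnight at 4 °C on peptides made on cellulose membranes, bound protein detected via HRP-coupled anti-GST antibody, spot intensity from image analysis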
Experimental: as §4

[7] = USP33_DUSP2, FP displacement by unlabelled peptide, read-out: KD

T2 sequence (Q9Y2K6 with tags, fused parts or gaps): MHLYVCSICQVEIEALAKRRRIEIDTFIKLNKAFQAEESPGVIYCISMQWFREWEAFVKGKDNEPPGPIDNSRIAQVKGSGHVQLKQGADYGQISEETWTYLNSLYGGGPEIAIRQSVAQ
T4 sequence (Q9Y2K6 4-99): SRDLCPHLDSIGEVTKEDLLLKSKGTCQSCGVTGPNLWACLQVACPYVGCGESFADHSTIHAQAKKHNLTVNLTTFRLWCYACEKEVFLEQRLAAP

Compound	Kd [1] [µM]	Kd [2] [µM]	Kd [3, 7] [µM]	also measured
CC(=O)N[C@@H](Cc1ccc(O)cc1)C(=O)N[C@@H](CCCCN)C(=O)N[C@@H](CCC(N)=O)C(=O)N[C@@H](CCC(N)=O)C(=O)N[C@@H](CCCNC(=N)N)C(=O)N[C@@H](CO)C(=O)N[C@@H](CC(=O)O)C(=O)N[C@@H](CC(C)C)C(=O)N[C@@H](C)C(=O)NCC(=O)N1CCC[C@H]1C(=O)N[C@H](C(=O)N[C@@H](CC(=O)O)C(N)=O)C(C)C [APBA2_N334A]	112	–	–	–
CC[C@H](C)[C@H](NC(=O)[C@H](Cc1ccc(O)cc1)NC(=O)[C@@H]1CCCN1C(C)=O)C(=O)N1CCC[C@H]1C(=O)N[C@@H](CCSC)C(=O)N[C@@H](CC(=O)O)C(=O)N[C@@H](CC(=O)O)C(=O)N[C@@H](CC(=O)O)C(=O)N[C@@H](C)C(=O)N[C@@H](CCC(N)=O)C(=O)N[C@@H](CC(C)C)C(=O)N[C@@H](CCCNC(=N)N)C(=O)N[C@@H](CO)C(=O)N[C@@H](Cc1ccccc1)C(=O)N[C@@H](CC(=O)O)C(=O)N[C@@H](CCC(N)=O)C(=O)N[C@@H](CC(C)C)C(=O)N[C@@H](CO)C(N)=O [HIF1A_F572A]	–	~589	~930	–
Ac-PYIPMDDDFQARSFDQLS-NH2 [HIF1A_L574A]	–	89	~227	–
Ac-PYIPMDDKFQLRSFDQLS-NH2 [HIF1A_D571K]	–	85	~145	–
Ac-PYIPMDGEDFQLSPICPE-NH2 [HIF2A]	–	~235	~1180	–
Ac-SDDDLAWNIAPQGLQ-NH2 [GPR137B348-362]	–	10.2	~228	Kd ([3]; competitive FP: unlabeled peptide (N-acetylated, C-amidated) against protein with 10 nM FITC-labeled peptide, 50 mM phosphate pH 7.4, room temperature, technical triplicate, read-out: KD, USP33 DUSP2): > 200 µM; Normalize to higher intensity (%) [5]: -9.797%; Average ([6]; peptide SPOT array intensity minus background, sheet S5A, mean of 2 replicas): 1.607; Normalize to higher intensity (%) ([6]; peptide SPOT array, USP20 DUSP2, average normalised to the highest intensity (ARNTL2 = 100)): 0.8997%; Normalize to peptide with higher intensity % ([6]; peptide SPOT array, sheet S5A, average normalized to the peptide with highest intensity (ARNTL2 = 100)): 0.8997%

Now from value to compound, other results behind:

Kd [1] [µM]	Kd [2] [µM]	Kd [3, 7] [µM]	Compound	also measured
14.1	–	–	AQDSPIDFHLQSWMNN [CEP192]	Kd [4]: 37.1 µM
~260	–	–	Ac-YEKVKRRLDLDID-NH2 [CCP110]	Kd [4]: ~505 µM
